For 29 compounds, EC30 results are on record in patent publication US10758534B2 (Vertex Pharmaceuticals Incorporated, priority 2014, dated 2020).

In the first experiment the target is T1, F508del (Homo sapiens, UniProt P13569, DEL508-508).
T1 construct: expressed in transfected cells
T1 sequence (P13569 with tags, fused parts or gaps DEL508-508): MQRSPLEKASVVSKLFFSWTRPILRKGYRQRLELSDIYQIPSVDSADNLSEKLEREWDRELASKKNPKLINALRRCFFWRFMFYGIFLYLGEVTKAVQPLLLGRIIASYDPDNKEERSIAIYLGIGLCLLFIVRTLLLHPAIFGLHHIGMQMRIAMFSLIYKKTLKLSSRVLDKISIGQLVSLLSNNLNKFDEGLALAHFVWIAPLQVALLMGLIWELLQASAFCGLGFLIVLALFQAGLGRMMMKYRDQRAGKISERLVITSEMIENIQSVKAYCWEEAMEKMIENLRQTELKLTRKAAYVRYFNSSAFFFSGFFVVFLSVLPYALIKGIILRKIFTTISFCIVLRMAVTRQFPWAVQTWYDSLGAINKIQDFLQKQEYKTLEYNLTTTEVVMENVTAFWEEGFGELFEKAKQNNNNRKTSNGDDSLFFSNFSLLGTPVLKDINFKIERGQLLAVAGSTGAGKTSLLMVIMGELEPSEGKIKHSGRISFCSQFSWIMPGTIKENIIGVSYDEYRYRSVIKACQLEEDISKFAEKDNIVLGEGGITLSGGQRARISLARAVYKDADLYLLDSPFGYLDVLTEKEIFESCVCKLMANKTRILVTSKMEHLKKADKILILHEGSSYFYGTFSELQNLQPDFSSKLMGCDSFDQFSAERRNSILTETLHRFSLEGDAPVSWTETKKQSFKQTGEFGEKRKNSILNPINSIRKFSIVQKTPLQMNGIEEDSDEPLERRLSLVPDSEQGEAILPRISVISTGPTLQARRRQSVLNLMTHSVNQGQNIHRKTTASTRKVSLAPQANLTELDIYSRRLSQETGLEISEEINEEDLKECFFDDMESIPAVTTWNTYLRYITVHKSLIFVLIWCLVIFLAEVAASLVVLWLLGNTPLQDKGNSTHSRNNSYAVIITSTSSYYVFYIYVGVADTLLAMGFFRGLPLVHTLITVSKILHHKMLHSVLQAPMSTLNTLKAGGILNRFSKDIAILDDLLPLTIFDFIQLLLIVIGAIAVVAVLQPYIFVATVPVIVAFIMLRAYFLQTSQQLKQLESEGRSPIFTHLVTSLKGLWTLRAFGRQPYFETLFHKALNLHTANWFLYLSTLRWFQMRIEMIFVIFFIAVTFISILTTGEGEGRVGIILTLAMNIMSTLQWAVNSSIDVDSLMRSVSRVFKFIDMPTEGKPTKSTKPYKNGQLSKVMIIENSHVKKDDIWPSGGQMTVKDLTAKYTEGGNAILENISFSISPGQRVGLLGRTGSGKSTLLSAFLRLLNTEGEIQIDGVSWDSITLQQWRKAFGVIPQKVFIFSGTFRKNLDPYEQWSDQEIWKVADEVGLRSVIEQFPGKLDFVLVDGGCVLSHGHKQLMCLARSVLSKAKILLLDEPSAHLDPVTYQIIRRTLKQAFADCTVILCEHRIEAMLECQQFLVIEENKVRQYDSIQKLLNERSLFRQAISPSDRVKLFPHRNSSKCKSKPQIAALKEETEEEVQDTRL
Description: Protocol 2: FRET membrane potential optical assay (VIPR), identification of correction compounds. The class given is cell-based. The note with it: F508del CFTR modulator activity; compounds of Table 1; read-out: EC30. The method in brief:
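Mouse NIH3T3 cells, stable F508del; cpd 16 hrs, 37° C., serum-free; pos ctrl 27° C. 16 hrs. Rinse in Krebs Ringers, dye load, then add 10 μM forskolin + 20 μM genistein with Cl^−-free (gluconate) medium; depolarization by FRET voltage dyes.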
Consider `CC1CN(c2ncccc2C(=O)NS(=O)(=O)c2cccc(Nc3ccc(F)c(F)c3)n2)C(C)(C)C1` (centres unmarked) [Compound 2341, N—[[6-(3,4-difluoroanilino)-2-pyridyl]sulfonyl]-2-(2,2,4-trimethylpyrrolidin-1-yl)pyridine-3-carboxamide], for which the concentration for an effect of 30% (EC30) – broadly, the point of the concentration-response curve where the effect stands at 30% – is < 3 µM.
Same read-out and setting: with `CC1CN(c2ncccc2C(=O)NS(=O)(=O)c2cccc(Nc3cnc4ccccc4c3)n2)C(C)(C)C1` (centres unmarked) [Compound 2449, N—[[6-(3-quinolylamino)-2-pyridyl]sulfonyl]-2-(2,2,4-trimethylpyrrolidin-1-yl)pyridine-3-carboxamide] the figure was < 3 µM.
Take `CC1CN(c2ncccc2C(=O)NS(=O)(=O)c2cccc(N3CCc4ccc(F)cc4C3)n2)C(C)(C)C1` (centres unmarked) [Compound 2518, N—[[6-(7-fluoro-3,4-dihydro-1H-isoquinolin-2-yl)-2-pyridyl]sulfonyl]-2-(2,2,4-trimethylpyrrolidin-1-yl)pyridine-3-carboxamide]: the EC30 was < 3 µM.
On to `CC1CN(c2ncccc2C(=O)NS(=O)(=O)c2cccc(N3CCCC3C)n2)C(C)(C)C1` (centres unmarked) [Compound 2609, N—[[6-(2-methylpyrrolidin-1-yl)-2-pyridyl]sulfonyl]-2-(2,2,4-trimethylpyrrolidin-1-yl)pyridine-3-carboxamide], for which the EC30 is < 3 µM.
Same read-out and setting: with `Cc1cc(-c2ccc(C(=O)NS(=O)(=O)c3cccnc3N)c(N3C[C@@H](C)CC3(C)C)n2)ccc1F` [Compound 2052, N-[(2-amino-3-pyridyl)sulfonyl]-6-(4-fluoro-3-methyl-phenyl)-2-[(4S)-2,2,4-trimethylpyrrolidin-1-yl]pyridine-3-carboxamide] the figure was < 3 µM.
Same read-out and setting: with `Cc1ccc(-c2ccc(C(=O)NS(=O)(=O)c3cccnc3N)c(N3C[C@@H](C)CC3(C)C)n2)c(F)c1` [Compound 2613, N-[(2-amino-3-pyridyl)sulfonyl]-6-(2-fluoro-4-methyl-phenyl)-2-[(4S)-2,2,4-trimethylpyrrolidin-1-yl]pyridine-3-carboxamide] the figure was < 3 µM.
Same read-out and setting: with `CNc1cccc(S(=O)(=O)NC(=O)c2cccnc2N2CC(C)CC2(C)C)n1` (centres unmarked) [Compound 2535, N—[[6-(methylamino)-2-pyridyl]sulfonyl]-2-(2,2,4-trimethylpyrrolidin-1-yl)pyridine-3-carboxamide] the figure was 3 to 10 µM; with `CC(C)COc1cc(F)cc(-c2ccc(C(=O)NS(=O)(=O)C3CCNC3)c(N3C[C@@H](C)CC3(C)C)n2)c1` (stereo partly drawn) [Compound 2042, 6-(3-fluoro-5-isobutoxy-phenyl)-N-pyrrolidin-3-ylsulfonyl-2-[(4S)-2,2,4-trimethylpyrrolidin-1-yl]pyridine-3-carboxamide], < 3 µM.
Take `CC1CN(c2ncccc2C(=O)NS(=O)(=O)c2cccc(N(C)C(C)C)n2)C(C)(C)C1` (single isomer, unassigned) [Compound 2724]: the EC30 is < 3 µM.
The same measure, in the same setting: with `CC(C)n1cc(-c2ccc(C(=O)NS(=O)(=O)c3cccnc3N)c(N3C[C@@H](C)CC3(C)C)n2)cn1` [Compound 2290, N-[(2-amino-3-pyridyl)sulfonyl]-6-(1-isopropylpyrazol-4-yl)-2-[(4S)-2,2,4-trimethylpyrrolidin-1-yl]pyridine-3-carboxamide] the figure was 3 to 10 µM.
The same measure, in the same setting: with `CC1CN(c2ncccc2C(=O)NS(=O)(=O)c2cccc(Nc3cc(F)cc(F)c3)n2)C(C)(C)C1` (centres unmarked) [Compound 2282, N—[[6-(3,5-difluoroanilino)-2-pyridyl]sulfonyl]-2-(2,2,4-trimethylpyrrolidin-1-yl)pyridine-3-carboxamide] the figure was < 3 µM; with `CC(C)Oc1ccc(-c2ccc(C(=O)NS(=O)(=O)N3CC[C@H](N)C3)c(N3C[C@@H](C)CC3(C)C)n2)cc1` [Compound 2120, N-[(3S)-3-aminopyrrolidin-1-yl]sulfonyl-6-(4-isopropoxyphenyl)-2-[(4S)-2,2,4-trimethylpyrrolidin-1-yl]pyridine-3-carboxamide], < 3 µM.
On the same count and under the same terms, with `CC(C)COc1cc(F)cc(-c2ccc(C(=O)NS(=O)(=O)c3cccc(N)n3)c(N3CC(C)C3)n2)c1` [Compound 2117, N-[(6-amino-2-pyridyl)sulfonyl]-6-(3-fluoro-5-isobutoxy-phenyl)-2-(3-methylazetidin-1-yl)pyridine-3-carboxamide] the figure was < 3 µM; with `C[C@@H]1CN(c2nc(-n3ccc(OCC(C)(C)C)n3)ccc2C(=O)NS(=O)(=O)C2CC2)C(C)(C)C1` [Compound 2554, N-cyclopropylsulfonyl-6-[3-(2,2-dimethylpropoxy)pyrazol-1-yl]-2-[(4S)-2,2,4-trimethylpyrrolidin-1-yl]pyridine-3-carboxamide], < 3 µM.

The experiment is the same for the next values; noted with them: Table 3; compounds of Table 1 as modulators of CFTR activity; protocol not stated.
Consider `COc1cc(-c2ccc(C(=O)NS(=O)(=O)c3cccc(N)n3)c(Oc3c(C)cc(C)cc3C)n2)ccc1C` [Compound 375, N-[(6-amino-2-pyridyl)sulfonyl]-6-(3-methoxy-4-methyl-phenyl)-2-(2,4,6-trimethylphenoxy)pyridine-3-carboxamide], for which the EC30 entry is reported as “+++ (“+++” means <3 uM)”.
Regarding `CC(C)c1ccc(-c2nc(C(C)(C)C)ccc2C(=O)NS(=O)(=O)c2cccc(N)c2)cc1` [Compound 314, N-(3-aminophenyl)sulfonyl-6-tert-butyl-2-(4-isopropylphenyl)pyridine-3-carboxamide], the EC30 result is “+++ (“+++” means <3 uM)”.
With `CC(C)COc1cc(F)cc(-c2ccc(C(=O)NS(=O)(=O)c3cccc(N)n3)c(OCC3CC3(F)F)n2)c1` (centres unmarked) [Compound 769, N-[(6-amino-2-pyridyl)sulfonyl]-2-[(2,2-difluorocyclopropyl)methoxy]-6-(3-fluoro-5-isobutoxy-phenyl)pyridine-3-carboxamide], the EC30 result was “+++ (“+++” means <3 uM)”.
On the same count and under the same terms, next, `C[C@H](COCc1ccccc1)Oc1ccc(-c2ccc(C(=O)NS(=O)(=O)c3cccc(N)n3)c(N3[C@H](C)CC[C@@H]3C)n2)cn1` [Compound 576, N-[(6-amino-2-pyridyl)sulfonyl]-6-[6-[(1R)-2-benzyloxy-1-methyl-ethoxy]-3-pyridyl]-2-[(2S,5R)-2,5-dimethylpyrrolidin-1-yl]pyridine-3-carboxamide]: “+++ (“+++” means <3 uM)”.
Same read-out and setting: with `Cc1cc(C)c(CN2Cc3ccccc3C2C(=O)NS(=O)(=O)c2ccccn2)c(C)c1` (centres unmarked) [Compound 48, N-(2-pyridylsulfonyl)-2-[(2,4,6-trimethylphenyl)methyl]isoindoline-1-carboxamide] the entry was “++ (“++” means between 3 uM and 10 uM)”; with `Cc1cc(C)c(Oc2nc(-c3ccncc3F)ccc2C(=O)NS(=O)(=O)c2cccc(N)n2)c(C)c1` [Compound 514, N-[(6-amino-2-pyridyl)sulfonyl]-6-(3-fluoro-4-pyridyl)-2-(2,4,6-trimethylphenoxy)pyridine-3-carboxamide], “+ (“+” means greater than 10 uM)”.
On the same count and under the same terms, with `Cc1cc(C)c(Oc2nc(C3CCC(C)CC3)ccc2C(=O)NS(=O)(=O)c2cccc(N)n2)c(C)c1` (centres unmarked) [Compound 172, N-[(6-amino-2-pyridyl)sulfonyl]-6-(4-methylcyclohexyl)-2-(2,4,6-trimethylphenoxy)pyridine-3-carboxamide] the entry was “+++ (“+++” means <3 uM)”; with `CC(C)COc1cc(F)cc(-c2ccc(C(=O)NS(=O)(=O)c3cccc(N)n3)c(N3C[C@@H]4CC[C@@H](C4)C3)n2)c1` [Compound 581, N-[(6-amino-2-pyridyl)sulfonyl]-2-[(1R,5S)-3-azabicyclo[3.2.1]octan-3-yl]-6-(3-fluoro-5-isobutoxy-phenyl)pyridine-3-carboxamide], “+++ (“+++” means <3 uM)”; with `COc1cc(F)cc(-c2ccc(C(=O)NS(=O)(=O)c3cccc(N)n3)c(Oc3c(C)cc(C)cc3C)n2)c1` [Compound 682, N-[(6-amino-2-pyridyl)sulfonyl]-6-(3-fluoro-5-methoxy-phenyl)-2-(2,4,6-trimethylphenoxy)pyridine-3-carboxamide], “+++ (“+++” means <3 uM)”.
With `CC(C)COc1cc(F)cc(-c2ccc(C(=O)NS(=O)(=O)c3cccc(N)n3)c(N3CC4CC4C3C(F)(F)F)n2)c1` (centres unmarked) [Compound 490, N-[(6-amino-2-pyridyl)sulfonyl]-6-(3-fluoro-5-isobutoxy-phenyl)-2-[4-(trifluoromethyl)-3-azabicyclo[3.1.0]hexan-3-yl]pyridine-3-carboxamide], the EC30 entry was “+++ (“+++” means <3 uM)”.
Still for that read-out and setting: next, `Cc1cc(C)c(Oc2nc(-c3cccc(CO)c3)ccc2C(=O)NS(=O)(=O)c2cccc(N)n2)c(C)c1` [Compound 786, N-[(6-amino-2-pyridyl)sulfonyl]-6-[3-(hydroxymethyl)phenyl]-2-(2,4,6-trimethylphenoxy)pyridine-3-carboxamide]: “+ (“+” means greater than 10 uM)”; `Cc1cc(C)c(Oc2nc(C(C)(C)C)ccc2C(=O)NS(=O)(=O)c2ccccc2O)c(C)c1` [Compound 131, 6-tert-butyl-N-(2-hydroxyphenyl)sulfonyl-2-(2,4,6-trimethylphenoxy)pyridine-3-carboxamide]: “+++ (“+++” means <3 uM)”; `CC(C)Oc1ccc(-c2ccc(C(=O)NS(=O)(=O)c3cccc(N)n3)c(N3CCCC(c4ccc(F)c(F)c4)C3)n2)cn1` (centres unmarked) [Compound 558, N-[(6-amino-2-pyridyl)sulfonyl]-2-[3-(3,4-difluorophenyl)-1-piperidyl]-6-(6-isopropoxy-3-pyridyl)pyridine-3-carboxamide]: “+++ (“+++” means <3 uM)”.
As to `CC(C)COc1cc(F)cc(-c2ccc(C(=O)NS(=O)(=O)c3cccc(N)n3)c(N3CCC[C@@H]3c3ccccc3)n2)c1` [Compound 447, N-[(6-amino-2-pyridyl)sulfonyl]-6-(3-fluoro-5-isobutoxy-phenyl)-2-[(2R)-2-phenylpyrrolidin-1-yl]pyridine-3-carboxamide], the EC30 entry is “+++ (“+++” means <3 uM)”.
On the same count and under the same terms, with `CC(C)(C)c1cc(C(=O)NS(=O)(=O)c2ccccc2)n(Cc2cccc3ccccc23)n1` [Compound 328, N-(benzenesulfonyl)-5-tert-butyl-2-(1-naphthylmethyl)pyrazole-3-carboxamide] the entry was “+++ (“+++” means <3 uM)”.
